Measured values reported in ChEMBL document CHEMBL1201862, “PubChem BioAssay data set” (2004).
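Compound exposure: 48 hours, 5 concentrations, 96-well plates. Here, GI50 denotes the concentration required for 50% inhibition of growth.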 Activity calls are given as the source filed them. Rule as the data show it: active = GI50 up to about 1.1 µM and inactive = higher.

Experiments:
Experiment in all cases: inhibition of tumour cell growth, NCI panel, 48 h
[1] = tested on: CCRF-CEM
[2] = tested on: COLO 205
[3] = tested on: HOP-62
[4] = tested on: LOX IMVI
[5] = tested on: MOLT-4
[6] = tested on: NCI-H226
[7] = tested on: NCI-H23
[8] = tested on: NCI-H460
[9] = tested on: OVCAR-3
[10] = tested on: OVCAR-5
[11] = tested on: RPMI-8226
[12] = tested on: SF-539
[13] = tested on: U-251
[14] = tested on: UACC-62
[15] = tested on: UO-31
[16] = tested on: ACHN
[17] = tested on: SR

| SMILES | GI50 [1] | GI50 [2] | GI50 [3] | GI50 [4] | GI50 [5] | GI50 [6] | GI50 [7] | GI50 [8] | GI50 [9] | GI50 [10] | GI50 [11] | GI50 [12] | GI50 [13] | GI50 [14] | GI50 [15] | GI50 [16] | GI50 [17] |
| --- | --- | --- | --- | --- | --- | --- | --- | --- | --- | --- | --- | --- | --- | --- | --- | --- | --- |
| CCCCCCCCCCCCCCC(O)C1CCC(C(O)CCC(O)CCCCCC(O)CC2=CC(C)OC2=O)O1 (centres undefined) | 1.29 µM (inactive) | 2.43 µM (inactive) | 1.55 µM (inactive) | 1.18 µM (inactive) | 0.64 µM (active) | 1.09 µM (active) | < 0.01 µM (active) | 1.79 µM (inactive) | 1.13 µM (inactive) | 4.4 µM (inactive) | 0.187 µM (active) | 1.3 µM (inactive) | 2.74 µM (inactive) | 2.33 µM (inactive) | 0.0604 µM (active) | – | – |
| CCCCCCCCSC(SCCCCCCCC)=C1C(=O)N(c2ccccc2)N=C1C | 16.1 µM (inactive) | 24.7 µM (inactive) | 46.5 µM (inactive) | 17.7 µM (inactive) | 28.4 µM (inactive) | 64.4 µM (inactive) | 32.8 µM (inactive) | 40.3 µM (inactive) | 29.4 µM (inactive) | 80.4 µM (inactive) | 39.4 µM (inactive) | – | 17.5 µM (inactive) | 24.5 µM (inactive) | 27.5 µM (inactive) | 35.2 µM (inactive) | 14.9 µM (inactive) |
| Cc1c2ccncc2c(C)c2c1[nH]c1ccc(O)c(OCC(F)(F)F)c12 | 2.33 µM (inactive) | 11.9 µM (inactive) | 10.8 µM (inactive) | 1.38 µM (inactive) | 2.01 µM (inactive) | 8.13 µM (inactive) | 6.1 µM (inactive) | 2.18 µM (inactive) | 7.8 µM (inactive) | 12.6 µM (inactive) | 2.1 µM (inactive) | 6.05 µM (inactive) | 2.7 µM (inactive) | 10.5 µM (inactive) | 9.66 µM (inactive) | – | – |
| COc1c2ccoc2c(S(=O)(=O)Nc2ccc(Cl)cc2)c2oc(C)cc(=O)c12 | > 100 µM (inactive) | > 100 µM (inactive) | > 89.5 µM (inactive) | > 100 µM (inactive) | > 100 µM (inactive) | > 81.1 µM (inactive) | > 100 µM (inactive) | > 100 µM (inactive) | > 100 µM (inactive) | > 100 µM (inactive) | > 100 µM (inactive) | 31.3 µM (inactive) | > 100 µM (inactive) | > 100 µM (inactive) | > 50.9 µM (inactive) | – | – |
| O=C(C#Cc1cnc(O)nc1O)c1ccccc1Cl | 3.94 µM (inactive) | 15.7 µM (inactive) | > 100 µM (inactive) | 13.4 µM (inactive) | 10.3 µM (inactive) | 28.8 µM (inactive) | 17.1 µM (inactive) | 24.3 µM (inactive) | 14.2 µM (inactive) | 19.7 µM (inactive) | 23.9 µM (inactive) | 16.3 µM (inactive) | 17.9 µM (inactive) | 16.4 µM (inactive) | 21 µM (inactive) | 17.3 µM (inactive) | – |
| COc1cccc(NC(=O)C(=O)C(C(=O)c2ccccc2F)C2OC(=O)c3ccccc32)c1 (centres undefined) | 16.9 µM (inactive) | 14.6 µM (inactive) | 42.2 µM (inactive) | 29.9 µM (inactive) | 25.4 µM (inactive) | 28 µM (inactive) | 29.6 µM (inactive) | 35.1 µM (inactive) | – | 59 µM (inactive) | 21.6 µM (inactive) | 21.3 µM (inactive) | 15.5 µM (inactive) | 26 µM (inactive) | 34.4 µM (inactive) | 45.1 µM (inactive) | 16.6 µM (inactive) |
| Cn1c(=O)nc2n(-c3ccc(O)cc3)c3ccccc3nc-2c1=O | 33 µM (inactive) | 23.9 µM (inactive) | 55.8 µM (inactive) | – | 54.5 µM (inactive) | 92.3 µM (inactive) | 23.3 µM (inactive) | 11 µM (inactive) | 17.9 µM (inactive) | > 100 µM (inactive) | 63.7 µM (inactive) | 5.56 µM (inactive) | 14 µM (inactive) | 16.4 µM (inactive) | > 100 µM (inactive) | 2.78 µM (inactive) | – |
| CCC(C)(C)NC1=C(NC(C)=O)C(=O)c2ccccc2C1=O | 17 µM (inactive) | 29.4 µM (inactive) | > 75 µM (inactive) | 29.8 µM (inactive) | 13.9 µM (inactive) | > 75 µM (inactive) | 18.9 µM (inactive) | 39.5 µM (inactive) | 34.8 µM (inactive) | – | – | 24.4 µM (inactive) | 36.1 µM (inactive) | 24.9 µM (inactive) | 27.5 µM (inactive) | 15.2 µM (inactive) | 31.3 µM (inactive) |
| COc1ccc(-c2cc(-c3ccco3)c(C#N)c(=O)[nH]2)cc1 | > 100 µM (inactive) | > 100 µM (inactive) | 15.7 µM (inactive) | > 100 µM (inactive) | > 100 µM (inactive) | > 100 µM (inactive) | 86.7 µM (inactive) | 35.1 µM (inactive) | 22.7 µM (inactive) | > 100 µM (inactive) | > 100 µM (inactive) | 15.8 µM (inactive) | 15.5 µM (inactive) | > 100 µM (inactive) | > 100 µM (inactive) | 87.5 µM (inactive) | – |
